Laboratory results from patent publication US20080051387A1, “TETRAHYDROPYRIDO[3,4-D]PYRIMIDINES AND RELATED ANALOGUES” (priority 2006, published 2008).

Target: T1, chimeric human H3 receptor (Homo sapiens, UniProt Q9Y5N1)
T1 construct: rat Galpha-i2 (Gnai2, rat); made in house; host or cells: Sf9 insect cells (baculovirus); P2 membranes
Experiment: Chimeric human H3 receptor screening GTP binding assay (inhibition of histamine-stimulated GTP-gamma35S binding, Example 8)
Assay type: biochemical
Conditions: 1 h; assay described in Example 8; symbol "!" in column headed Ki; read-out: Ki ("!": percent inhibition of agonist-induced GTP-gammaS binding to H3)
How it was run: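 Compound tested at 4 μM against 1 μM histamine stimulation; 125 pM GTP-gamma35S binding measured by filtration and scintillation after 60 min at room temperature. Membranes from Sf9 cells expressing chimeric human H3 plus G-protein subunits, in Tris pH 7.4/NaCl/MgCl2/GDP buffer; values are % inhibition after nonspecific subtraction.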

T1 sequence (Q9Y5N1 with tags, fused parts or gaps): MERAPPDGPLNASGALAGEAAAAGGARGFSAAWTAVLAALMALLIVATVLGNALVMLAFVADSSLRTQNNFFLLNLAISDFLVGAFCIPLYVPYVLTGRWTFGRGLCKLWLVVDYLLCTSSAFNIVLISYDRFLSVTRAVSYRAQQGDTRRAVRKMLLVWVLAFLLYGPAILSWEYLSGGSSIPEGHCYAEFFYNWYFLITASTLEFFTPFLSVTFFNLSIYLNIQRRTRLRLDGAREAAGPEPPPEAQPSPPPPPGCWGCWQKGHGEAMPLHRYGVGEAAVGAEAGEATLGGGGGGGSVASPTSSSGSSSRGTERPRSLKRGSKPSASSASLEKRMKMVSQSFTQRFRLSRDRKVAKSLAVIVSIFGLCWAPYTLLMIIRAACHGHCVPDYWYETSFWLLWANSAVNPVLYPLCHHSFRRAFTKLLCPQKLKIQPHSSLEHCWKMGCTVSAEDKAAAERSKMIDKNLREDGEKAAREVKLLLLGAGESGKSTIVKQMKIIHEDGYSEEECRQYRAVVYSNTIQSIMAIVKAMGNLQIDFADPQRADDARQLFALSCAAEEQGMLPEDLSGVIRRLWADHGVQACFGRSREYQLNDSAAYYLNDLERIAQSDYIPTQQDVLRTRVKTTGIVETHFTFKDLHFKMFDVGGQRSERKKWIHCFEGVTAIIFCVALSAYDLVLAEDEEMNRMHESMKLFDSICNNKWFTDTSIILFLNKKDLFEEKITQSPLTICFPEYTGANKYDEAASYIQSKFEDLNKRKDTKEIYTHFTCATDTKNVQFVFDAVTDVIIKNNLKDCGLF

Inhibition at 4 µM, ≥ 90%:
COc1cccc(OC)c1C(=O)N1CCc2cnc(N3CCN(C4CCC4)CC3)nc2CC1 [Compound 424, 2-(4-cyclobutylpiperazin-1-yl)-7-(2,6-dimethoxybenzoyl)-6,7,8,9-tetrahydro-5H-pyrimido[4,5-d]azepine]
COc1ccc(C(=O)N2CCc3cnc(N4CCN(C5CCC5)CC4)nc3CC2)c(Cl)c1OC [Compound 425, 7-(2-chloro-3,4-dimethoxybenzoyl)-2-(4-cyclobutylpiperazin-1-yl)-6,7,8,9-tetrahydro-5H-pyrimido[4,5-d]azepine]
COc1ccc(Cl)c(OC)c1C(=O)N1CCc2cnc(N3CCN(C4CCC4)CC3)nc2CC1 [Compound 426, 7-(3-chloro-2,6-dimethoxybenzoyl)-2-(4-cyclobutylpiperazin-1-yl)-6,7,8,9-tetrahydro-5H-pyrimido[4,5-d]azepine]
COc1c(Cl)cc(Cl)c(OC)c1C(=O)N1CCc2cnc(N3CCN(C4CCC4)CC3)nc2CC1 [Compound 427, 2-(4-cyclobutylpiperazin-1-yl)-7-(3,5-dichloro-2,6-dimethoxybenzoyl)-6,7,8,9-tetrahydro-5H-pyrimido[4,5-d]azepine]
COc1cc(Cl)c(C(=O)N2CCc3cnc(N4CCN(C5CCC5)CC4)nc3CC2)cc1OC [Compound 428, 7-(2-chloro-4,5-dimethoxybenzoyl)-2-(4-cyclobutylpiperazin-1-yl)-6,7,8,9-tetrahydro-5H-pyrimido[4,5-d]azepine]
COc1cc(Br)c(C(=O)N2CCc3cnc(N4CCN(C5CCC5)CC4)nc3CC2)cc1OC [Compound 429, 7-(2-bromo-4,5-dimethoxybenzoyl)-2-(4-cyclobutylpiperazin-1-yl)-6,7,8,9-tetrahydro-5H-pyrimido[4,5-d]azepine]
COc1cccc(C(=O)N2CCc3cnc(N4CCN(C5CCC5)CC4)nc3CC2)c1OC [Compound 430, 2-(4-cyclobutylpiperazin-1-yl)-7-(2,3-dimethoxybenzoyl)-6,7,8,9-tetrahydro-5H-pyrimido[4,5-d]azepine]
COc1ccc(C(=O)N2CCc3cnc(N4CCN(C5CCC5)CC4)nc3CC2)c(OC)c1 [Compound 431, 2-(4-cyclobutylpiperazin-1-yl)-7-(2,4-dimethoxybenzoyl)-6,7,8,9-tetrahydro-5H-pyrimido[4,5-d]azepine]
COc1ccc(C(=O)N2CCc3cnc(N4CCN(C5CCC5)CC4)nc3CC2)c(OC)c1OC [Compound 432, 2-(4-cyclobutylpiperazin-1-yl)-7-(2,3,4-trimethoxybenzoyl)-6,7,8,9-tetrahydro-5H-pyrimido[4,5-d]azepine]
O=C(c1c(F)cccc1Cl)N1CCc2cnc(N3CCN(C4CCC4)CC3)nc2CC1 [Compound 433, 7-(2-chloro-6-fluorobenzoyl)-2-(4-cyclobutylpiperazin-1-yl)-6,7,8,9-tetrahydro-5H-pyrimido[4,5-d]azepine]
O=C(c1c(F)cccc1C(F)(F)F)N1CCc2cnc(N3CCN(C4CCC4)CC3)nc2CC1 [Compound 434, 2-(4-cyclobutylpiperazin-1-yl)-7-[2-fluoro-6-(trifluoromethyl)benzoyl]-6,7,8,9-tetrahydro-5H-pyrimido[4,5-d]azepine]
O=C(c1c(Cl)cccc1Cl)N1CCc2cnc(N3CCN(C4CCC4)CC3)nc2CC1 [Compound 435, 2-(4-cyclobutylpiperazin-1-yl)-7-(2,6-dichlorobenzoyl)-6,7,8,9-tetrahydro-5H-pyrimido[4,5-d]azepine]
O=C(c1ccccc1Cl)N1CCc2cnc(N3CCN(C4CCC4)CC3)nc2CC1 [Compound 436, 7-(2-chlorobenzoyl)-2-(4-cyclobutylpiperazin-1-yl)-6,7,8,9-tetrahydro-5H-pyrimido[4,5-d]azepine]
O=C(c1cccc(C(F)(F)F)c1Cl)N1CCc2cnc(N3CCN(C4CCC4)CC3)nc2CC1 [Compound 437, 7-[2-chloro-3-(trifluoromethyl)benzoyl]-2-(4-cyclobutylpiperazin-1-yl)-6,7,8,9-tetrahydro-5H-pyrimido[4,5-d]azepine]
O=C(c1cc(C(F)(F)F)ccc1Cl)N1CCc2cnc(N3CCN(C4CCC4)CC3)nc2CC1 [Compound 438, 7-[2-chloro-5-(trifluoromethyl)benzoyl]-2-(4-cyclobutylpiperazin-1-yl)-6,7,8,9-tetrahydro-5H-pyrimido[4,5-d]azepine]
O=C(c1ccccc1C(F)(F)F)N1CCc2cnc(N3CCN(C4CCC4)CC3)nc2CC1 [Compound 439, 2-(4-cyclobutylpiperazin-1-yl)-7-[2-(trifluoromethyl)benzoyl]-6,7,8,9-tetrahydro-5H-pyrimido[4,5-d]azepine]
O=C(c1cccc(Cl)c1Cl)N1CCc2cnc(N3CCN(C4CCC4)CC3)nc2CC1 [Compound 440, 2-(4-cyclobutylpiperazin-1-yl)-7-(2,3-dichlorobenzoyl)-6,7,8,9-tetrahydro-5H-pyrimido[4,5-d]azepine]
O=C(c1cc(Cl)ccc1Cl)N1CCc2cnc(N3CCN(C4CCC4)CC3)nc2CC1 [Compound 441, 2-(4-cyclobutylpiperazin-1-yl)-7-(2,5-dichlorobenzoyl)-6,7,8,9-tetrahydro-5H-pyrimido[4,5-d]azepine]
O=C(c1ccc(Cl)cc1Cl)N1CCc2cnc(N3CCN(C4CCC4)CC3)nc2CC1 [Compound 442, 2-(4-cyclobutylpiperazin-1-yl)-7-(2,4-dichlorobenzoyl)-6,7,8,9-tetrahydro-5H-pyrimido[4,5-d]azepine]
O=C(c1cccs1)N1CCc2cnc(N3CCN(C4CCC4)CC3)nc2CC1 [Compound 443, 2-(4-cyclobutylpiperazin-1-yl)-7-(2-thienylcarbonyl)-6,7,8,9-tetrahydro-5H-pyrimido[4,5-d]azepine]
Cc1ccsc1C(=O)N1CCc2cnc(N3CCN(C4CCC4)CC3)nc2CC1 [Compound 444, 2-(4-cyclobutylpiperazin-1-yl)-7-[(3-methyl-2-thienyl)carbonyl]-6,7,8,9-tetrahydro-5H-pyrimido[4,5-d]azepine]
Cc1ccc(C(=O)N2CCc3cnc(N4CCN(C5CCC5)CC4)nc3CC2)s1 [Compound 445, 2-(4-cyclobutylpiperazin-1-yl)-7-[(5-methyl-2-thienyl)carbonyl]-6,7,8,9-tetrahydro-5H-pyrimido[4,5-d]azepine]
O=C(c1sccc1Cl)N1CCc2cnc(N3CCN(C4CCC4)CC3)nc2CC1 [Compound 446, 7-[(3-chloro-2-thienyl)carbonyl]-2-(4-cyclobutylpiperazin-1-yl)-6,7,8,9-tetrahydro-5H-pyrimido[4,5-d]azepine]
CCOc1ccsc1C(=O)N1CCc2cnc(N3CCN(C4CCC4)CC3)nc2CC1 [Compound 447, 2-(4-cyclobutylpiperazin-1-yl)-7-[(3-ethoxy-2-thienyl)carbonyl]-6,7,8,9-tetrahydro-5H-pyrimido[4,5-d]azepine]
